Results published in patent US7250304B2, “Functional assay of high-density lipoprotein” (The Regents of the University of California, priority 2000, dated 2007).
Where two headings read alike, the source gives them in different places.

Key:
paraoxonase [1] = conditions: mice, six hours after injection
LDL = experiment: Removal of 13-HPODE and 15-HPETE from LDL (RP-HPLC, mass spectrometry); set-up: species or system human; conditions: LDL 1 mg/ml with apo A-I 100 μg/ml, 2 hrs
Method: FIG. 6, panels A through H, illustrate the removal of 13-HPODE and 15-HPETE by apo A-I from LDL. Freshly isolated LDL (1 mg/ml) was incubated alone (LDL sham), or with apo A-I (100 μg/ml) in M199 for 2 hrs, with gentle mixing. For controls, 100 μg/ml apo A-I was incubated alone in M 199 for 2 hrs (A-I Sham, Panel A and Panel E) or 1 mg/ml freshly isolated LDL was incubated alone in M 199 for 2 hrs (LDL Sham, Panel B and Panel F) with gentle mixing at 37° C. The LDL and apo A-I were then re-isolated by centrifugation using Millipore molecular weight cut-off filters (100 kDa). Lipids were extracted from apo A-I and from LDL and were analyzed by reverse phase HPLC.
High performance reverse phase liquid chromatography (RP-HPLC) was conducted according to the methods of Ames and colleagues (Yamamoto and Ames (1987) Free Rad. Biol. Med. 3: 359-361), Kambayashi and colleagues (Kambayashi et al. (1997) J. Biochem. 121: 425-431), and Alex Sevanian (personal communication). In brief, the analyses were performed by injecting isolated lipids resuspended in mobile solvent onto the column and eluting with a flow rate of 1.0 ml/min. Detection of fatty acid oxidation products was performed by UV absorbance with a diode array detector (Beckman Instruments) scanning from 200 to 350 nm or with an evaporative light scattering detector (SEDEX 55, France). […]

HAEC monolayers = experiment: Monocyte adhesion assay; type: cell-based, human; conditions: LDL 1 mg/ml incubated with apo A-I 100 μg/ml 2 hrs, re-isolated
Method: In brief, HAEC monolayers, in 48-well tissue culture plates were incubated with the desired LDL or phospholipid for 4 hrs at 37° C. as described (Watson et al. (1995) J. Clin. Invest. 96: 2882-2891). After washing, a suspension of human peripheral blood monocytes was added and incubated for 10 min. The loosely adherent monocytes were then washed away, the monolayers were fixed and the number of adherent monocytes counted in 9 high power microscopic fields.
Freshly isolated LDL (250 μg) was incubated with pure 13(S)-HPODE (1.0 μg) in 10% LPDS in M 199 for 4 hrs at 37° C. with gentle mixing. LDL was re-isolated by centrifugation and was incubated with monolayers of human aortic endothelial cells. […] The endothelial monolayer was washed after each time point and a monocyte suspension was added, incubated, washed, and the number of adherent monocytes determined.
Freshly isolated LDL (250 μg) was incubated with 10 units of pure soybean lipoxygenase bound to sepharose beads for 4 hrs at 37° C. with gentle mixing. […] The endothelial monolayer was washed after each time point and monocyte adhesion determined.
Blood samples were collected from patients referred to the cardiac catheterization laboratory at The Center for Health Sciences at the University of California, Los Angeles. […] The HDL-Ox-PAPC mixture was then added to endothelial monolayers and monocyte binding was determined.

paraoxonase [2] = conditions: humans, six hours after the infusion vs two hours before
Method: After obtaining written informed consent and with IRB approval from St Bartholomew's and the Royal London School of Medicine and Dentistry, apo A-I/phosphotidylcholine discs were infused at a dose of 40 mg apo A-I /kg of body weight over four hours using the materials and protocol described by Nanjee et al (Nanjee et al. (1999) Arterioscler. Thromb. Vascul. Biol. 19: 979-989; Nanjee et al. (1996) Arteroscler. Thromb. Vascul. Biol. 16: 1203-1214) into six healthy male subjects. […] Plasma was prepared 2 hrs before and 6 hrs following the infusion, was cryopreserved as described (Havel et al. (1955) J. Clin. Invest. 43: 1345-1353) and LDL was isolated by FPLC in the authors' lab in Los Angeles before the experiments. LDL islated from plasma according to this protocol functions in a manner that is indistinguishable from freshly isolated LDL in vitro and in vivo (Rumsey et al. (1994) J. Lipid Res. 35: 1592-1598).
Paraoxonase (PON) activity was measured as previously described (Gan et al. (1991) Drug Metab. Dispos. 19: 100-106). Statistical significance was determined by model 1 ANOVA. […] Significance is defined as p<0.05.

C57BL/6 mice = experiment: Injection into mice, LDL isolated and tested on human artery wall cocultures
[3] = tested on: fibroblasts over expressing 15-LO; experiment: Removal of 13(S)-HPODE by apo A-I from fibroblasts over expressing 15-LO; type: cell-based; conditions: apo A-I 100 μg/ml, 3 hrs
Method: Fibroblasts that were transfected with vector alone or cells that over expressed 15-LO were a generous gift of Drs. Joe Witztum and Peter Reaven. In the present experiments, the fibroblasts were incubated with or without 100 μg/ml apo A-I. Following 3 hrs of incubation at 37° C. with gentle mixing, the culture supernatants were removed, apo A-I was separated by FPLC and the level of hydroperoxides determined in lipid extracts of the culture supernatants and in lipid extracts of apo A-I.

## apo A-I: Human apo A-I from Sigma, major apolipoprotein of HDL; infused into humans as apo A-I/phosphatidylcholine discs
Paraoxonase [1]
  PON activity in plasma and HDL, increase: approximately 20%
LDL
  removal of HPODE and HPETE from freshly isolated LDL: effectively removed
HAEC monolayers
  monocyte adherence induced by LDL after A-I: did not stimulate monocyte adherence
Paraoxonase [2]
  PON activity in plasma and HDL, increase: approximately 20%
C57BL/6 mice
  time after injection at which LDL was rendered resistant to oxidation: ≤ 3 h
C57BL/6 mice; 100 μg injected
  persistence of LDL resistance to oxidation: up to 24 hours
[3]
  13-HPODE equivalents in lipid extracts of apo A-I, cells over expressing LO vs control cells: 5.1 fold
